Laboratory results published in BindingDB's records for doi:10.1007/s00213-002-1073-7 (WestfÄLische Wilhelms-Universit&Auml, 2002).
Several values for one entry are separate records, joined by “and”; a condition that tells them apart may be missing. Identical values can stand only once.

Columns and labels:
[1] = biological target: D(1B) dopamine receptor (Homo sapiens, UniProt P21918)
[2] = biological target: T1, 5-hydroxytryptamine receptor 3A (Homo sapiens, UniProt P46098)
T1 sequence (P46098 whole entry): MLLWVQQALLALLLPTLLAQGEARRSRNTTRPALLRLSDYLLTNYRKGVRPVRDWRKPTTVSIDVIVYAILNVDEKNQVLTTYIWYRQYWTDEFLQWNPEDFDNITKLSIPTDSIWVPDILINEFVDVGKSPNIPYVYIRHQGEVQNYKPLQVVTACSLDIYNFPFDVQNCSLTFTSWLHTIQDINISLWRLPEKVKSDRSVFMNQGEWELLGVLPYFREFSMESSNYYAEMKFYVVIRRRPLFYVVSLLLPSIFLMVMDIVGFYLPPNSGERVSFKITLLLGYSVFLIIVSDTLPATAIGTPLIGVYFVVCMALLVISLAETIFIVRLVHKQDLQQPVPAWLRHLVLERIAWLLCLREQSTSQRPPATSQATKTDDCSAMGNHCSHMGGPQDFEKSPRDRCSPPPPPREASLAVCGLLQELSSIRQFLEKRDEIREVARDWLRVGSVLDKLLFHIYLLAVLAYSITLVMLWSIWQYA

[3] = biological target: T2, Alpha-2C adrenergic receptor (Homo sapiens, UniProt P18825)
T2 sequence (P18825 whole entry): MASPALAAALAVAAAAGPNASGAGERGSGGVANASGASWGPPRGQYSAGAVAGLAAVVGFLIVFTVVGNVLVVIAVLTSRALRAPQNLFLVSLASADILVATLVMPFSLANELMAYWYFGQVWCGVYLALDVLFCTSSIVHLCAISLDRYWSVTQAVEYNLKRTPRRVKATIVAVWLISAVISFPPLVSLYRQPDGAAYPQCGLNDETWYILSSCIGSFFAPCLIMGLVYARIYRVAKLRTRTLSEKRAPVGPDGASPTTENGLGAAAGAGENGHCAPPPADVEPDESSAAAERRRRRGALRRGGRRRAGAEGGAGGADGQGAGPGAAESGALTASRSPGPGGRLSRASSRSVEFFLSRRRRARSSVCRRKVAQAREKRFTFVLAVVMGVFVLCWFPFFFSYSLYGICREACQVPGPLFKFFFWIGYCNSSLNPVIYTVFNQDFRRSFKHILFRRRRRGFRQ

[4] = biological target: T3, Alpha-1B adrenergic receptor (Homo sapiens, UniProt P35368)
T3 sequence (P35368 whole entry): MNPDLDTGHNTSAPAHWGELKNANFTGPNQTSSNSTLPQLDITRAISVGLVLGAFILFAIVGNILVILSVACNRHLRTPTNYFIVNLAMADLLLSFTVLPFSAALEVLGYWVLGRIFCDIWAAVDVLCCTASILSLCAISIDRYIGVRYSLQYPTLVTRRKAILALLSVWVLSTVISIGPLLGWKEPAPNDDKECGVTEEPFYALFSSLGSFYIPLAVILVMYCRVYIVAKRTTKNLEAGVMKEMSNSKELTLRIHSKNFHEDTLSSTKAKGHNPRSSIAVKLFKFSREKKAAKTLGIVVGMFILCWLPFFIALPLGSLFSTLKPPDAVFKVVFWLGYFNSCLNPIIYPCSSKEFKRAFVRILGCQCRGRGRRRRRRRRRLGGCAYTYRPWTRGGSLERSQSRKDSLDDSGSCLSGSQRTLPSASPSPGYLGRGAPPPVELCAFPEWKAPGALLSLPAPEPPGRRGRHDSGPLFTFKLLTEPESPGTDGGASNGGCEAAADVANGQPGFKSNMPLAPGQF

[5] = biological target: Beta-2 adrenergic receptor (Rattus norvegicus, UniProt P10608)
Sequence of Beta-2 adrenergic receptor (P10608 whole entry): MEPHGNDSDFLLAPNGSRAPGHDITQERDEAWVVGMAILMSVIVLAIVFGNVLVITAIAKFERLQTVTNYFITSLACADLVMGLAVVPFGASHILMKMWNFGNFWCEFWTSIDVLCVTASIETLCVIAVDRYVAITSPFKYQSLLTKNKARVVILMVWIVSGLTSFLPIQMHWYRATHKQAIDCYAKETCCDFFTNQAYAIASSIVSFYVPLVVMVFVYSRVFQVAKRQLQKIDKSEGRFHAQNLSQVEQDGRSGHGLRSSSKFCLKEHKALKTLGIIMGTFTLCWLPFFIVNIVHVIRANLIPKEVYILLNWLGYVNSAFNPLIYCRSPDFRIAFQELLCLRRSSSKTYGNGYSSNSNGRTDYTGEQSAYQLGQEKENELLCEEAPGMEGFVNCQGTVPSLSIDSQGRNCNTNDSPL

[6] = biological target: Kappa-type opioid receptor (Homo sapiens, UniProt P41145)
Sequence of Kappa-type opioid receptor (P41145 whole entry): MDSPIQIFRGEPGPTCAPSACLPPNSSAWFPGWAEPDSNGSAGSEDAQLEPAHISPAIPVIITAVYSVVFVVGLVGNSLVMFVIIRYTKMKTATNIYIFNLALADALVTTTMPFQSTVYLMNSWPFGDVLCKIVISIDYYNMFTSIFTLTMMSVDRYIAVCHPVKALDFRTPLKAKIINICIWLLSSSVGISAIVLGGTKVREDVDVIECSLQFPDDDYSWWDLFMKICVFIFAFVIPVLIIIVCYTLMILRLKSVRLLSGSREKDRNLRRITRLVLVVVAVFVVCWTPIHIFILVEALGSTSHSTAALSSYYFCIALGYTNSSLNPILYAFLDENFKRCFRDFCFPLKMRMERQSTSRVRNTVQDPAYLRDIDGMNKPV

[7] = biological target: T4, D(4) dopamine receptor (Rattus norvegicus, UniProt P30729)
T4 sequence (P30729 whole entry): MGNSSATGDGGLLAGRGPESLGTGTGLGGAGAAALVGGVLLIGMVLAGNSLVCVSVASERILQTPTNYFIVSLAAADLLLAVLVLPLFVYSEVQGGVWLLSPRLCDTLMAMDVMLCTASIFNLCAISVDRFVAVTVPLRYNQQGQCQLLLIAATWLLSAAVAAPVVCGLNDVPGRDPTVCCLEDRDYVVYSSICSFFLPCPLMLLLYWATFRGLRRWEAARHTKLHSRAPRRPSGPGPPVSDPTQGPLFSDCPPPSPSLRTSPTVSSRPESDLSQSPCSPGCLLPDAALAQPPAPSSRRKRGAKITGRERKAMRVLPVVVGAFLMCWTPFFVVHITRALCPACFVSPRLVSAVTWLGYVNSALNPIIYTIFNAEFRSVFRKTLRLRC

[8] = biological target: Beta-1 adrenergic receptor (Rattus norvegicus, UniProt P18090)
Sequence of Beta-1 adrenergic receptor (P18090 whole entry): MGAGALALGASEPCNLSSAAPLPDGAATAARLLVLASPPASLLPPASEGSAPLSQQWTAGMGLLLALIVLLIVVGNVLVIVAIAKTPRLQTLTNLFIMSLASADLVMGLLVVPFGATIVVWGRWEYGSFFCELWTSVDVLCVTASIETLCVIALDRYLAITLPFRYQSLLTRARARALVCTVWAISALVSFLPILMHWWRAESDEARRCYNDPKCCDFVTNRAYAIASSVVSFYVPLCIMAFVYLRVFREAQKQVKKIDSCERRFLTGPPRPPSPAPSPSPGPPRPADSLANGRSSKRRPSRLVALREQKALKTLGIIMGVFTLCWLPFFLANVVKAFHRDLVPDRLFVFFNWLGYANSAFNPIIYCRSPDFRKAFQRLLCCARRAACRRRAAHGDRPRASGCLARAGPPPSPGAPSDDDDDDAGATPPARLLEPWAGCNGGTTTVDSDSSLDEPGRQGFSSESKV

[9] = biological target: T5, 5-hydroxytryptamine receptor 1A (Homo sapiens, UniProt P08908)
T5 sequence (P08908 whole entry): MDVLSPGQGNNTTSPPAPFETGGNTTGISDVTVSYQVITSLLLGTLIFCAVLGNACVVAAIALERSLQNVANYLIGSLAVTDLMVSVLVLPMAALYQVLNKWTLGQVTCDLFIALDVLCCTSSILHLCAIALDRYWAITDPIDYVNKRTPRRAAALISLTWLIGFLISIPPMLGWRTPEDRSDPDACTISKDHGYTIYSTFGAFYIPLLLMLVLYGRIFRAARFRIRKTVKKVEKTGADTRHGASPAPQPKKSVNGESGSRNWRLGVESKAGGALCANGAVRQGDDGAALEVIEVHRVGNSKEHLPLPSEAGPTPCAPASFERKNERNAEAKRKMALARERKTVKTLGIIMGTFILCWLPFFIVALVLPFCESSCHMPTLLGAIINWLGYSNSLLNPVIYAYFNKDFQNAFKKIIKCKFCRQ

[10] = biological target: D(3) dopamine receptor (Rattus norvegicus, UniProt P19020)
Sequence of D(3) dopamine receptor (P19020 whole entry): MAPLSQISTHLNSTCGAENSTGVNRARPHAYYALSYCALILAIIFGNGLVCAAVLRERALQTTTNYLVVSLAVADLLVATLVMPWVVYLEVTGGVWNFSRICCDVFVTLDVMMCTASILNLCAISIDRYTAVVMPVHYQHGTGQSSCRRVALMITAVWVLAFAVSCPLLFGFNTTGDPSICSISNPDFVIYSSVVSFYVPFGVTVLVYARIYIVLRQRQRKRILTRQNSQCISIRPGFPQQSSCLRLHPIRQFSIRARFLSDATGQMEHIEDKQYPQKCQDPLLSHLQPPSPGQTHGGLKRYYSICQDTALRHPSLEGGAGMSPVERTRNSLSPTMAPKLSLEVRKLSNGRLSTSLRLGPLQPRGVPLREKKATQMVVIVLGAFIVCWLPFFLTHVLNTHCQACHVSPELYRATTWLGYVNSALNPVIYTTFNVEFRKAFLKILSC

Sequence of D(1B) dopamine receptor (P21918 whole entry): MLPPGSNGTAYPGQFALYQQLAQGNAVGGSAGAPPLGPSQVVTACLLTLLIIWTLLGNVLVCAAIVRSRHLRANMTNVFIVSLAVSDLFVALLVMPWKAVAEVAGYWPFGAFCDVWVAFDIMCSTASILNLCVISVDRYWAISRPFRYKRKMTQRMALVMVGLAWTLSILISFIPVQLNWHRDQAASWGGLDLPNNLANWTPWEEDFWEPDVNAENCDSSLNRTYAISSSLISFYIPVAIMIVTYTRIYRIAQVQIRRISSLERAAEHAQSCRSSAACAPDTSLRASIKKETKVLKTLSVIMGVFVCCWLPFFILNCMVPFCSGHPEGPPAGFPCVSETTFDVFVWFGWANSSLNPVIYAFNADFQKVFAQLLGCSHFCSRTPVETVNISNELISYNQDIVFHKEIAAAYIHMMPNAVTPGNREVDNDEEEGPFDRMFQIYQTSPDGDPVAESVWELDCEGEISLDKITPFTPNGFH

Row | Ki [1] [µM] | Ki [2] [µM] | Ki [3] | Ki [4] [µM] | Ki [5] [µM] | Ki [6] [µM] | Ki [7] [µM] | Ki [8] [µM] | Ki [9] [µM] | Ki [10] [µM] | Structure (SMILES)
1 | > 10 | > 10 | 9.64 µM | > 10 | > 10 | > 10 | > 10 | > 10 | > 10 | > 10 | C[C@@H]1O[C@@H](OC[C@H]2O[C@@H](Oc3c(-c4ccc(O)c(O)c4)oc4cc(O)cc(O)c4c3=O)[C@H](O)[C@@H](O)[C@@H]2O)[C@H](O)[C@H](O)[C@H]1O [3-Rhamnoglucosylquercetin]
2 | > 10 | > 10 | > 10 µM | > 10 | > 10 | > 10 | > 10 | > 10 | > 10 | 1.24 | O=c1cc(O)cc2oc(-c3ccc(O)c(-c4c(O)cc(O)c5c(=O)cc(-c6ccc(O)cc6)oc45)c3)cc(O)c1-2

More lines, now with the values behind:

Row | Structure (SMILES) | Ki [1] [µM] | Ki [2] [µM] | Ki [3] | Ki [4] [µM] | Ki [5] [µM] | Ki [6] [µM] | Ki [7] [µM] | Ki [8] [µM] | Ki [9] [µM] | Ki [10] [µM]
3 | O=c1cc(O)cc2oc(-c3ccc(O)c(O)c3)c(OC3OC(CO)C(O)C(O)C3O)c(O)c1-2 (stereo not given) [NSC_5318390] | > 10 | > 10 | > 10 µM and 4.06 µM | > 10 | > 10 | > 10 | > 10 | > 10 | > 10 | > 10
4 | C[C@@H]1O[C@@H](Oc2c(-c3ccc(O)c(O)c3)oc3cc(O)cc(=O)c-3c2O)[C@H](O)[C@H](O)[C@H]1O | > 10 | > 10 | > 10 µM | > 10 | > 10 | > 10 | > 10 | > 10 | > 10 | > 10
5 | CC(C)=CCC[C@]1(C)[C@@H](CC=C(C)C)C[C@]2(CC=C(C)C)C(=O)C(CC=C(C)C)C(=O)[C@]1(C(=O)C(C)C)C2=O (stereo not given in full) | > 10 | > 10 | > 10 µM | > 10 | > 10 | > 10 | > 10 | > 10 | > 10 | > 10
6 | O=c1c(O)c(-c2ccc(O)c(O)c2)oc2cc(O)cc(O)c12 [2-(3,4-dihydroxyphenyl)-3,5,7-trihydroxy-chromone;hydrate] | > 10 | > 10 | > 10 µM | > 10 | > 10 | > 10 | 7.85 | > 10 | > 10 | > 10
